# According to ChEMBL document CHEMBL1926526, “Mefloquine-oxazolidine derivatives, derived from mefloquine and arenecarbaldehydes: In vitro activity including against the multidrug-resistant tuberculosis strain T113” (Bioorg Med Chem, 2012):
# What was measured:
# [1] = Cytotoxicity against mouse macrophages assessed as cell viability at 1 uM after 18 hrs by MTT assay; type: cell-based, Macrophage; details: read-out: Activity
# [2] = Cytotoxicity against mouse macrophages assessed as cell viability at 10 uM after 18 hrs by MTT assay; type: cell-based, Macrophage; details: read-out: Activity
# [3] = tested on: Mycobacterium tuberculosis; experiment: Antimycobacterial activity against Mycobacterium tuberculosis H37Rv ATCC 27294 by alamar blue assay; type: functional
# [4] = Cytotoxicity against mouse macrophages assessed as cell viability at 100 uM after 18 hrs by MTT assay; type: cell-based, Macrophage; details: read-out: Activity
# [5] = tested on: Mycobacterium tuberculosis; experiment: Ratio of mefloquine MIC to compound MIC for Mycobacterium tuberculosis H37Rv ATCC 27294 by alamar blue assay; type: functional
Compound,"viability at 18 h, 1 µM [1] [%]","viability at 18 h, 10 µM [2] [%]",MIC [3] [µM],"viability at 18 h, 100 µM [4] [%]",Ratio [5]
O=[N+]([O-])c1ccc(C2O[C@@H](c3cc(C(F)(F)F)nc4c(C(F)(F)F)cccc34)[C@H]3CCCCN23)s1 (mixture of isomers),100,100,12.1,100,2.7
FC(F)(F)c1cc([C@@H]2OC(c3cccc(Cl)c3Cl)N3CCCC[C@H]23)c2cccc(C(F)(F)F)c2n1 (mixture of isomers),100,100,> 250,100,
FC(F)(F)c1cc([C@@H]2OC(c3ccc(Cl)c(Cl)c3)N3CCCC[C@H]23)c2cccc(C(F)(F)F)c2n1 (mixture of isomers),100,100,> 250,100,
FC(F)(F)c1cc([C@@H]2OC(c3ccc(Cl)cc3Cl)N3CCCC[C@H]23)c2cccc(C(F)(F)F)c2n1 (mixture of isomers),100,100,> 250,98,
FC(F)(F)c1cc([C@@H]2OC(c3c(Cl)cccc3Cl)N3CCCC[C@H]23)c2cccc(C(F)(F)F)c2n1 (mixture of isomers),93,92,> 250,59,
COc1cccc(C2O[C@@H](c3cc(C(F)(F)F)nc4c(C(F)(F)F)cccc34)[C@H]3CCCCN23)c1OC (mixture of isomers),100,100,11.9,100,2.8
CCOc1cccc(C2O[C@@H](c3cc(C(F)(F)F)nc4c(C(F)(F)F)cccc34)[C@H]3CCCCN23)c1 (mixture of isomers),100,100,24.5,95,
COc1cc(C2O[C@@H](c3cc(C(F)(F)F)nc4c(C(F)(F)F)cccc34)[C@H]3CCCCN23)cc(OC)c1OC (mixture of isomers),100,100,22.5,97,
O=[N+]([O-])c1ccc(C2O[C@@H](c3cc(C(F)(F)F)nc4c(C(F)(F)F)cccc34)[C@H]3CCCCN23)o1 (mixture of isomers),100,100,99.8,100,
FC(F)(F)c1cc([C@@H]2OC(c3ncc[nH]3)N3CCCC[C@H]23)c2cccc(C(F)(F)F)c2n1 (mixture of isomers),100,100,27.4,100,
OC(c1cc(C(F)(F)F)nc2c(C(F)(F)F)cccc12)C1CCCCN1 (stereo not given) [MEFLOQUINE],95,81,,70,
